Source: patent US20210128685A1, “PEDF-DERIVED PEPTIDES FOR PROMOTING MEIBOMIAN GLAND REGENERATION AND USES THEREOF” (BRIM Biotechnology, Inc., priority 2018, published 2021)

Experiments:
limbus stem cells = settings: rabbit; cited from earlier work
[1] = Alanine scanning and variants of the 29-mer (activities)
Meibomian gland = test: Eyelid whole mount Oil Red O (ORO) staining, MG size; assay type: in vivo, C57BL/6 mice; settings: old mice, weekly subconjunctival injection, at one month
Experimental: (§1) Twelve to fifteen (12-15) months old C57BL/6 mice and 4-8 months old C57BL/6 mice were used. These mice were kept in standard pathogen-free environment at 24° C.±1° C., relatively humidity 60%±10%. All procedures were approved by the Mackay Memorial Hospital Review Board for animal investigation and were conducted in accordance with the ARVO statement for the Use of Animals in Ophthalmic and Vision Research. Mice were anesthetized by an intraperitoneal injection of a mixture of zoletil (6 mg/kg) and xylazine (3 mg/kg). One drop of 0.5% proparacaine hydrochloride (Alcaine; Alcon, Fort Worth, Tex., USA) was given before any ocular procedure.
(§2) The 29-mer was reconstituted in DMSO to a final concentration 100 μM. A separated dose of 10 μl of 29-mer (100 μM) mixed with 90 μl of phosphate-buffered saline (PBS) was injected into the upper and lower conjunctival fornix. 10 μl of DMSO mixed with 90 μl of PBS served as a control. […]
At one month, upper eyelids were subjected to whole mount Oil Red O (ORO) staining. The size of MG tissue in whole mount was quantified using the color range selection and histogram tool with a computer-assisted image analyzer (Adobe Photoshop 7.0) and was calculated in Pixels. […]

[2] = Tear film break-up time (TBUT); assay type: in vivo, C57BL/6 mice; settings: old mice, weekly subconjunctival injection up to 4 weeks; week 1 to week 4, difference significant up to 8 weeks
Experimental: as §1, §2
To avoid the reduced lipids secretion resulting from no eye blinking under long-term anesthesia, Tear break-up time (TBUT)^19,20 was performed immediately after mice were anesthetized. […] After three compulsory blinks, TBUT was recorded in […] under a slit-lamp with a blue-free barrier filter. […]

[3] = test system: acinar progenitor cells (p63-expressing cells); test: Immunohistochemistry of stem cell marker p63 in upper eyelids 5 days after single treatment; assay type: in vivo, C57BL/6 mice; settings: aging (old) mice
Experimental: as §1, §2
Immunohistochemistry (IHC) was performed as previously described and modified.^22 Formalin-fixed, paraffin-embedded, mice specimens were deparaffinized in xylene and rehydrated in a graded series of ethanol concentrations. […] Quantification was estimated based on high quality images captured using a Pannoramic digital slide scanners (3Dhistech Ltd. Budapest, Hungary).

acinar progenitor cells = test: 5-Bromo-2'-deoxyuridine (BrdU) incorporation assay in upper eyelids after subconjunctival injection; assay type: in vivo, C57BL/6 mice; settings: for BrdU-positive cells per acinus: 24 hours after subconjunctival injection; for BrdU-positive cells in acinar base (cell proliferation): day 5 after single subconjunctival injection
Experimental: as §1
(§3) The 29-mer was reconstituted in DMSO to a final concentration 100 μM. A separated dose of 10 μl of 29-mer (100 μM) mixed with 90 μl of phosphate-buffered saline (PBS) was injected into the upper and lower conjunctival fornix. 10 μl of DMSO mixed with 90 μl of PBS served as a control. To evaluate the effect of 29-mer on tear film break-up time (TBUT) and tear secretion of old mice, subconjunctival injection of 29-mer was introduced weekly till one month and then followed up for two months.
After subconjunctival injection of 29-mer or DMSO, 5-Bromo-2′deoxyuridine (BrdU) 0.1 mg/g of body weight was injected intraperitoneally. The upper eyelids were harvested at 24 hours to evaluate the proliferation of acinar progenitor cells. To study the mitosis of cells, mice were administered by intraperitoneal injections of BrdU daily for 3 days, and the upper eyelids were harvested at day 5. Before performing immunohistochemistry of BrdU, slides were treated with 1 N HCL at 95° C. for 20 minutes.
Immunohistochemistry (IHC) was performed as previously described and modified.^22 Formalin-fixed, paraffin-embedded, mice specimens were deparaffinized in xylene and rehydrated in a graded series of ethanol concentrations. Slides were blocked with 10% goat serum for 60 minutes and then incubated with primary antibody against BrdU (1:800 dilution), PEDF (1:50), or p63 (1:200) overnight at 4° C. The slides were subsequently incubated with the appropriate peroxidase-labeled goat immunoglobulin (1:500 dilution; Chemicon, Temecula, Calif.) for 20 minutes and then incubated with chromogen substrate (3,3-diaminobenzidine) for 2 minutes before counterstaining with hematoxylin. Quantification was estimated based on high quality images captured using a Pannoramic digital slide scanners (3Dhistech Ltd. Budapest, Hungary).

[4] = Measurement of tear volume (phenol red thread tear test); assay type: in vivo, C57BL/6 mice; settings: old mice, weekly subconjunctival injection up to 4 weeks; weeks 1, 2, 3, 4 and 8
Experimental: as §1, §2
The amount of tears was measured with the phenol red thread tear test using ZONE-QUICK cotton threads (Yokota, Tokyo, Japan).^19,20 After general anesthesia, the lower eyelid was pulled down slightly, and a 1 mm portion of the thread was placed on the palpebral conjunctiva at the point ⅓ of the distance from the lateral canthus. […] The red portion of the thread is measured in millimeters.

[5] = test system: myogenic stem cells and C2C12 myoblasts; settings: cited from earlier work
meibocytes = test: Oil Red O staining of eyelid cryosections for lipids; assay type: in vivo, C57BL/6 mice; settings: old mice, versus DMSO
Experimental: as §1, §3
Eyelid tissues were embedded in OCT and sectioned at 8 μm of thickness. Frozen sections were placed in 60% 2-propanol for 1 minute, stained with filtered ORO solution for 15 minutes, rinsed with PBS and counterstained with hematoxylin.^4

44-mer: 44-mer motif of PEDF, amino acid positions Val78-Thr121 (VLLSPLSVATALSALSLGAEQRTESIIHRALYYDLISSPDIHGT; UniProt P36955 78-121, looked up, fragment)
stem cells proliferation and regeneration in the limbus (limbus stem cells): induce stem cells proliferation and regeneration

SLGAEHRTESVIHR (listed as Mus musculus) [mo-14mer, mouse variant of the 14-mer]
activities of 29-mer variants [1]: active

SLGAEHRTESVIHRALYYDLITNPDIHST (listed as Mus musculus) [mo-29mer, mouse variant of the 29-mer]
activities of 29-mer variants [1]: active

SLGAEQRTESIIHRALYYDLISSPDIHGT (listed as Homo sapiens) [29-mer, PEDF-derived short peptide, human PEDF residues 93-121 (Ser93-Thr121)]
MG acinar size, whole mount ORO, upper eyelids (Meibomian gland): 2347530±34986.4 pixels/eyelid
TBUT versus control [2]: significantly longer
number of p63-expressing cells per acinus [3]: 10.98±2.75
BrdU-positive cells per acinus (acinar progenitor cells; old mice): 1.67±0.58 cells/per acinus
BrdU-positive cells in acinar base (cell proliferation) (acinar progenitor cells; old mice): 4.29±1.19
BrdU-positive cells per acinus (acinar progenitor cells; young mice): 2.35±0.73 cells/per acinus
BrdU-positive cells in acinar base (cell proliferation) (acinar progenitor cells; young mice): 6.70±1.35
Tear secretion test versus control [4]: invariant
proliferation of myogenic stem cells and C2C12 myoblasts [5]: induce proliferation
ORO staining within the cytoplasm of differentiating meibocytes, cross sections (meibocytes): more overall ORO staining
